Patent publication US9758537B2 (Achillion Pharmaceuticals, Inc., priority 2014, dated 2017)

Target: Human factor D (Homo sapiens (Human), UniProt P00746)
Assay: Human Factor D Assay
Assay type: biochemical
Conditions: human factor D 80 nM, substrate Z-L-Lys-SBzl, DTNB, OD405
Procedure: Human factor D (purified from human serum, Complement Technology, Inc.) at 80 nM final concentration is incubated with test compound at various concentrations for 5 minutes at room temperature in 50 mM Tris, 1M NaCl, pH 7.5. A synthetic substrate Z-L-Lys-SBzl and DTNB (Ellman's reagent) are added to final concentrations of 10 μM each. The increase in color is recorded at OD405 nm in a microplate in kinetic mode over 30 minutes with 30 second time points in a […]. IC50 values are calculated by non-linear regression from the percentage of inhibition of complement factor D activity as a function of test compound concentration.

Chain of Human factor D (P00746 26-253): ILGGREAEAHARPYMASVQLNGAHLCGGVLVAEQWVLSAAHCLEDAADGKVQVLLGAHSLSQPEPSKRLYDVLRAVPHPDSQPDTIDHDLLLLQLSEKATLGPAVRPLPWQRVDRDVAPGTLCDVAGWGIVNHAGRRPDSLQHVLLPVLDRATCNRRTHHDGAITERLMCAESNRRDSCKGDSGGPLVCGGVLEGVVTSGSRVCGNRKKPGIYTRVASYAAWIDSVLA

SMILES	IC50
NC(=O)c1nn(CC(=O)N2C[C@H](F)C[C@H]2C(=O)Nc2cccc(-c3ccc(F)c(F)c3Cl)c2F)c2ccccc12 [Compound 92, 1-(2-((2S,4R)-2-(2′-chloro-2,3′,4′-trifluorobiphenyl-3-ylcarbamoyl)-4-fluoropyrrolidin-1-yl)-2-oxoethyl)-1H-indazole-3-carboxamide]	< 1000 nM
CC(=O)c1cn(CC(=O)N2C[C@H](F)C[C@H]2C(=O)N2Cc3ccccc3C2)c2ccccc12 [Compound 33, 2-(3-acetyl-1H-indol-1-yl)-1-((2S,4R)-4-fluoro-2-(isoindoline-2-carbonyl)pyrrolidin-1-yl)ethanone]	> 10000 nM
O=C(c1cn(CC(=O)N2C[C@H](F)C[C@H]2C(=O)NCc2cccc(Cl)c2F)c2ccccc12)C1CC1 [Compound 24, (2S,4R)-N-(3-chloro-2-fluorobenzyl)-1-(2-(3-(cyclopropanecarbonyl)-1H-indol-1-yl)acetyl)-4-fluoropyrrolidine-2-carboxamide]	< 1000 nM
O=C(c1cn(CC(=O)N2[C@@H]3C[C@@H]3C[C@H]2C(=O)NCc2cccc(Cl)c2F)c2ccccc12)C1CC1 [Compound 22, (1R,3S,5R)-N-(3-chloro-2-fluorobenzyl)-2-(2-(3-(cyclopropanecarbonyl)-1H-indol-1-yl)acetyl)-2-azabicyclo[3.1.0]hexane-3-carboxamide]	< 1000 nM
CC(=O)c1cn(CC(=O)N2CC[C@@H](OCC3CC3)[C@H]2C(=O)NCc2cccc(Cl)c2F)c2ccccc12 [Compound 18, (2S,3R)-1-(2-(3-acetyl-1H-indol-1-yl)acetyl)-N-(3-chloro-2-fluorobenzyl)-3-(cyclopropylmethoxy) pyrrolidine-2-carboxamide]	< 1000 nM
Cc1cc2c(s1)c(C(N)=O)nn2CC(=O)N1C[C@H](F)C[C@H]1C(=O)Nc1cccc(Br)n1 [Compound 118, 1-(2-((2S,4R)-2-(6-bromopyridin-2-ylcarbamoyl)-4-fluoropyrrolidin-1-yl)-2-oxoethyl)-5-methyl-1H-thieno[3,2-c]pyrazole-3-carboxamide]	< 1000 nM
CC(=O)c1cn(CC(=O)N2C[C@H](F)C[C@H]2C(=O)Nc2cccc(-c3ccccc3Cl)c2F)c2c(-c3ccc(Cl)nc3)cccc12 [Compound 112, (2S,4R)-1-(2-(3-acetyl-7-(6-chloropyridin-3-yl)-1H-indol-1-yl)acetyl)-N-(2′-chloro-2-fluorobiphenyl-3-yl)-4-fluoropyrrolidine-2-carboxamide]	< 1000 nM
O=C1CCCc2c1c1ccccc1n2CC(=O)N1C[C@H](F)C[C@H]1C(=O)NCc1cccc(Cl)c1F [Compound 37, (2S,4R)-N-(3-chloro-2-fluorobenzyl)-4-fluoro-1-(2-(4-oxo-3,4-dihydro-1H-carbazol-9(2H)-yl)acetyl)pyrrolidine-2-carboxamide]	< 1000 nM
CC(=O)c1cn(CC(=O)N2C[C@H](F)C[C@H]2Cn2cc(-c3ccc(F)cc3)nn2)c2ccccc12 [Compound 27, 2-(3-acetyl-1H-indol-1-yl)-1-((2S,4R)-4-fluoro-2-((4-(4-fluorophenyl)-1H-1,2,3-triazol-1-yl)methyl)pyrrolidin-1-yl)ethanone]	> 10000 nM
N#Cc1cccc2c(C(N)=O)nn(CC(=O)N3C[C@H](F)C[C@H]3C(=O)Nc3cccc(-c4ccccc4Cl)c3F)c12 [Compound 111, 1-(2-((2S,4R)-2-(2′-chloro-2-fluorobiphenyl-3-ylcarbamoyl)-4-fluoropyrrolidin-1-yl)-2-oxoethyl)-7-cyano-1H-indazole-3-carboxamide]	< 1000 nM
CC(=O)c1ccc(Cl)c(-c2cccc(NC(=O)[C@@H]3C[C@@H](F)CN3C(=O)Cn3nc(C(N)=O)c4ccccc43)c2F)c1 [Compound 117, 1-(2-((2S,4R)-2-(5′-acetyl-2′-chloro-2-fluorobiphenyl-3-ylcarbamoyl)-4-fluoropyrrolidin-1-yl)-2-oxoethyl)-1H-indazole-3-carboxamide]	< 1000 nM
CC(=O)c1cn(CC(=O)N2C[C@H](F)C[C@H]2C(=O)Nc2cccc(-c3ccccc3Cl)c2F)c2c(C3CC3)cccc12 [Compound 115, (2S,4R)-1-(2-(3-acetyl-7-cyclopropyl-1H-indol-1-yl)acetyl)-N-(2′-chloro-2-fluorobiphenyl-3-yl)-4-fluoropyrrolidine-2-carboxamide]	< 1000 nM
NC(=O)c1nn(CC(=O)N2C[C@H](F)C[C@H]2C(=O)Nc2cccc(-c3cc(F)c(F)cc3Cl)c2F)c2ccccc12 [Compound 80, 1-(2-((2S,4R)-2-(2′-chloro-2,4′,5′-trifluorobiphenyl-3-ylcarbamoyl)-4-fluoropyrrolidin-1-yl)-2-oxoethyl)-1H-indazole-3-carboxamide]	< 1000 nM
CC(=O)c1cn(CC(=O)N2[C@@H]3CCC[C@@H]3C[C@H]2C(=O)NCc2cccc(Cl)c2F)c2cc(O)ccc12 [Compound 62]	< 1000 nM

Next, values leading:

IC50	SMILES
> 10000 nM	CC(=O)n1cc(NC(=O)Nc2cn(C(C)=O)c3ccccc23)c2ccccc21 [Compound 20, 1,3-bis(1-acetyl-1H-indol-3-yl)urea]
> 10000 nM	COc1ncc(-c2cn(CC(=O)N3C[C@H](F)C[C@H]3C(=O)Nc3cccc(-c4ccccc4Cl)c3F)nc2C(N)=O)cn1 [Compound 110, 1-(2-((2S,4R)-2-(2′-chloro-2-fluorobiphenyl-3-ylcarbamoyl)-4-fluoropyrrolidin-1-yl)-2-oxoethyl)-4-(2-methoxypyrimidin-5-yl)-1H-pyrazole-3-carboxamide]
< 1000 nM	O=C(NCc1cccc(Cl)c1F)[C@@H]1C[C@@H](F)CN1C(=O)Cn1nc(-c2cnc[nH]2)c2ccncc21 [Compound 75, (2S,4R)-1-(2-(3-(1H-imidazol-5-yl)-1H-pyrazolo[3,4-c]pyridin-1-yl)acetyl)-N-(3-chloro-2-fluorobenzyl)-4-fluoropyrrolidine-2-carboxamide]
> 10000 nM	CC(=O)n1cc(NC(=O)[C@@H]2C[C@H](F)CN2C(=O)NCc2ccccc2)c2ccccc21 [Compound 5, (2S,4S)-N2-(1-acetyl-1H-indol-3-yl)-N1-benzyl-4-fluoropyrrolidine-1,2-dicarboxamide]
> 10000 nM	CC(=O)Nc1ccc(C(=O)N2C[C@H](F)C[C@H]2C(=O)NCc2cccc(Cl)c2F)cn1 [Compound 51, (2S,4R)-1-(6-acetamidonicotinoyl)-N-(3-chloro-2-fluorobenzyl)-4-fluoropyrrolidine-2-carboxamide]
> 10000 nM	O=C(NCc1cccc(Cl)c1F)[C@@H]1C[C@@H](F)CN1C(=O)c1csc(-c2cccnc2)n1 [Compound 50, (2S,4R)-N-(3-chloro-2-fluorobenzyl)-4-fluoro-1-(2-(pyridin-3-yl)thiazole-4-carbonyl)pyrrolidine-2-carboxamide]
< 1000 nM	N#Cc1cn(CC(=O)N2C[C@H](F)C[C@H]2C(=O)NCc2cccc(Cl)c2F)c2ccccc12 [Compound 36, (2S,4R)-N-(3-chloro-2-fluorobenzyl)-1-(2-(3-cyano-1H-indol-1-yl)acetyl)-4-fluoropyrrolidine-2-carboxamide]
> 10000 nM	NC(=O)n1cc(NC(=O)N2C[C@H](F)C[C@H]2C(=O)NS(=O)(=O)c2cccc(Cl)c2F)c2ccccc21 [Compound 6, (2S,4R)-N1-(1-carbamoyl-1H-indol-3-yl)-N2-(3-chloro-2-fluorophenylsulfonyl)-4-fluoropyrrolidine-1,2-dicarboxamide]
> 10000 nM	CC(=O)n1cc(NC(=O)[C@H]2CCCN2C(=O)NCc2cccc(Cl)c2F)c2ccccc21 [Compound 9, (R)-N2-(1-acetyl-1H-indol-3-yl)-N1-(3-chloro-2-fluorobenzyl) pyrrolidine-1,2-dicarboxamide]
< 1000 nM	CC(=O)Nc1cn(CC(=O)N2C[C@H](F)C[C@H]2C(=O)NCc2cccc(Cl)c2F)c2ccccc12 [Compound 47, (2S,4R)-1-(2-(3-acetamido-1H-indol-1-yl)acetyl)-N-(3-chloro-2-fluorobenzyl)-4-fluoropyrrolidine-2-carboxamide]
< 1000 nM	NC(=O)c1nn(CC(=O)N2C[C@H](F)C[C@H]2C(=O)Nc2cccc(-c3cc(F)c(F)cc3Cl)c2F)c2cnccc12 [Compound 83, 1-(2-((2S,4R)-2-(2′-chloro-2,4′,5′-trifluorobiphenyl-3-ylcarbamoyl)-4-fluoropyrrolidin-1-yl)-2-oxoethyl)-1H-pyrazolo[3,4-c]pyridine-3-carboxamide]
< 1000 nM	O=C(NCc1cccc(Cl)c1F)[C@@H]1C[C@@H](F)CN1C(=O)Nc1cn(C(=O)C2CC2)c2ccccc12 [Compound 54, (2S,4R)-N2-(3-chloro-2-fluorobenzyl)-N1-(1-(cyclopropanecarbonyl)-1H-indol-3-yl)-4-fluoropyrrolidine-1,2-dicarboxamide]
> 10000 nM	CC(=O)n1cc(NC(=O)[C@@H]2C[C@H](F)CN2C(=O)NCc2cccc(Cl)c2F)c2ccccc21 [Compound 4, (2S,4S)-N2-(1-acetyl-1H-indol-3-yl)-N1-(3-chloro-2-fluorobenzyl)-4-fluoropyrrolidine-1,2-dicarboxamide]
> 10000 nM	O=C(O)CCC(=O)N1CCc2c(n(CC(=O)N3C[C@H](F)C[C@H]3C(=O)NCc3cccc(Cl)c3F)c3ccccc23)C1 [Compound 72, 4-(9-(2-((2S,4R)-2-(3-chloro-2-fluorobenzylcarbamoyl)-4-fluoropyrrolidin-1-yl)-2-oxoethyl)-3,4-dihydro-1H-pyrido[3,4-b]indol-2(9H)-yl)-4-oxobutanoic acid]
< 1000 nM	NC(=O)c1nn(CC(=O)N2C[C@H](F)C[C@H]2C(=O)Nc2cccc(Br)n2)c2ccsc12 [Compound 106, 1-(2-((2S,4R)-2-(6-bromopyridin-2-ylcarbamoyl)-4-fluoropyrrolidin-1-yl)-2-oxoethyl)-1H-thieno[3,2-c]pyrazole-3-carboxamide]
> 10000 nM	O=C(NCc1cccc(Cl)c1F)[C@@H]1C[C@@H](F)CN1C(=O)CN1C=NS(=O)(=O)c2ccccc21 [Compound 65, (2S,4R)-N-(3-chloro-2-fluorobenzyl)-1-(2-(1,1-dioxido-4H-benzo[e][1,2,4]thiadiazin-4-yl)acetyl)-4-fluoropyrrolidine-2-carboxamide]
